The target of the assay is Prostacyclin receptor (Homo sapiens) (UniProt P43119). The experiment in a line: Positive allosteric modulation of human prostacyclin receptor expressed in CHOK1 cells assessed as increase in PGI2-induced cAMP production by measuring 2 fold leftward shift in PGI2 concentration response curve measured after 1 hr. Type of assay: functional, cell-based. On the technique in general: Changes in cAMP serve as a functional read-out for many G protein-coupled receptors.

Structures are written as SMILES.

Sequence of Prostacyclin receptor (Homo sapiens) (P43119 whole entry): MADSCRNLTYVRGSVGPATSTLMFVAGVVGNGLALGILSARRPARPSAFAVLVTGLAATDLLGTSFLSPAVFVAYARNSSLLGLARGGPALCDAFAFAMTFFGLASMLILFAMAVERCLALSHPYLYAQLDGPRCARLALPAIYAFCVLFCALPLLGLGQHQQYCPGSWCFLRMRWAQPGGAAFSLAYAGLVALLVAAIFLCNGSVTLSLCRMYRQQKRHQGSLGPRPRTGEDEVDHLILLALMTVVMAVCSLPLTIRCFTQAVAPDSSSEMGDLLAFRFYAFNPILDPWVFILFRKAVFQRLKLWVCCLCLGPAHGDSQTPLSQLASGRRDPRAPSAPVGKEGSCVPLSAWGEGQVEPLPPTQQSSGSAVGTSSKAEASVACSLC

For `CC(C)(C)n1nnnc1[C@@H](c1ccccc1)N1CCc2ccccc2C1`, the Activity is 3.1 µM.

For the origin of these results see ChEMBL document CHEMBL4028843, “Synthesis of both enantiomers of 1,2,3,4-tetrahydroisoquinoline derivative IPPAM-1 and enantio-dependency of its positive allosteric modulation of prostacyclin receptor” (Bioorg Med Chem Lett, 2017).
